Measurements published in ChEMBL document CHEMBL4014283, “Structural insights of SmKDAC8 inhibitors: Targeting Schistosoma epigenetics through a combined structure-based 3D QSAR, in vitro and synthesis strategy” (Bioorg Med Chem, 2017).
The source made the active and inactive calls. The rule behind the calls is not given here.

Key:
[1] = molecular target: KDAC3/NCOR2 (histone deacetylase 3/nuclear receptor corepressor 2 complex) (Homo sapiens, UniProt O15379); experiment: (§1) Inhibition of full length human C-terminal His-tagged KDAC3/N-terminal GST-tagged human NCOR2 (395 to 489 residues) expressed in baculovirus expression system at 30 uM using FITC-p53 acetylated peptide as substrate after 60 mins by microfluidic assay; conditions: probe FITC-p53 acetylated peptide
Chain of KDAC3/NCOR2 (histone deacetylase 3/nuclear receptor corepressor 2 complex) (O15379 whole entry, the tested form may be a part): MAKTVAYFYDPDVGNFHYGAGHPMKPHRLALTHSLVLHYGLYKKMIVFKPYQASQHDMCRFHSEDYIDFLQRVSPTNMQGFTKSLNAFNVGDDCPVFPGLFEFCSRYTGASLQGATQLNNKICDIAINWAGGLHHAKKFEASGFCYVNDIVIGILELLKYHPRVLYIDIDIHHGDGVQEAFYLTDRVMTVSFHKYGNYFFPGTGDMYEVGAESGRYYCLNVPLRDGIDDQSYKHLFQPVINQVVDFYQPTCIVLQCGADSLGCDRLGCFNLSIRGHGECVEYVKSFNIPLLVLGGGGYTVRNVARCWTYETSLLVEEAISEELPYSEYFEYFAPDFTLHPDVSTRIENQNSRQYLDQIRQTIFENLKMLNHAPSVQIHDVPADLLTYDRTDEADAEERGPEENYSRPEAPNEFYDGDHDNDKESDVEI
Chain of KDAC3/NCOR2 (histone deacetylase 3/nuclear receptor corepressor 2 complex) (Q9Y618 whole entry, further chain, the tested form may be a part): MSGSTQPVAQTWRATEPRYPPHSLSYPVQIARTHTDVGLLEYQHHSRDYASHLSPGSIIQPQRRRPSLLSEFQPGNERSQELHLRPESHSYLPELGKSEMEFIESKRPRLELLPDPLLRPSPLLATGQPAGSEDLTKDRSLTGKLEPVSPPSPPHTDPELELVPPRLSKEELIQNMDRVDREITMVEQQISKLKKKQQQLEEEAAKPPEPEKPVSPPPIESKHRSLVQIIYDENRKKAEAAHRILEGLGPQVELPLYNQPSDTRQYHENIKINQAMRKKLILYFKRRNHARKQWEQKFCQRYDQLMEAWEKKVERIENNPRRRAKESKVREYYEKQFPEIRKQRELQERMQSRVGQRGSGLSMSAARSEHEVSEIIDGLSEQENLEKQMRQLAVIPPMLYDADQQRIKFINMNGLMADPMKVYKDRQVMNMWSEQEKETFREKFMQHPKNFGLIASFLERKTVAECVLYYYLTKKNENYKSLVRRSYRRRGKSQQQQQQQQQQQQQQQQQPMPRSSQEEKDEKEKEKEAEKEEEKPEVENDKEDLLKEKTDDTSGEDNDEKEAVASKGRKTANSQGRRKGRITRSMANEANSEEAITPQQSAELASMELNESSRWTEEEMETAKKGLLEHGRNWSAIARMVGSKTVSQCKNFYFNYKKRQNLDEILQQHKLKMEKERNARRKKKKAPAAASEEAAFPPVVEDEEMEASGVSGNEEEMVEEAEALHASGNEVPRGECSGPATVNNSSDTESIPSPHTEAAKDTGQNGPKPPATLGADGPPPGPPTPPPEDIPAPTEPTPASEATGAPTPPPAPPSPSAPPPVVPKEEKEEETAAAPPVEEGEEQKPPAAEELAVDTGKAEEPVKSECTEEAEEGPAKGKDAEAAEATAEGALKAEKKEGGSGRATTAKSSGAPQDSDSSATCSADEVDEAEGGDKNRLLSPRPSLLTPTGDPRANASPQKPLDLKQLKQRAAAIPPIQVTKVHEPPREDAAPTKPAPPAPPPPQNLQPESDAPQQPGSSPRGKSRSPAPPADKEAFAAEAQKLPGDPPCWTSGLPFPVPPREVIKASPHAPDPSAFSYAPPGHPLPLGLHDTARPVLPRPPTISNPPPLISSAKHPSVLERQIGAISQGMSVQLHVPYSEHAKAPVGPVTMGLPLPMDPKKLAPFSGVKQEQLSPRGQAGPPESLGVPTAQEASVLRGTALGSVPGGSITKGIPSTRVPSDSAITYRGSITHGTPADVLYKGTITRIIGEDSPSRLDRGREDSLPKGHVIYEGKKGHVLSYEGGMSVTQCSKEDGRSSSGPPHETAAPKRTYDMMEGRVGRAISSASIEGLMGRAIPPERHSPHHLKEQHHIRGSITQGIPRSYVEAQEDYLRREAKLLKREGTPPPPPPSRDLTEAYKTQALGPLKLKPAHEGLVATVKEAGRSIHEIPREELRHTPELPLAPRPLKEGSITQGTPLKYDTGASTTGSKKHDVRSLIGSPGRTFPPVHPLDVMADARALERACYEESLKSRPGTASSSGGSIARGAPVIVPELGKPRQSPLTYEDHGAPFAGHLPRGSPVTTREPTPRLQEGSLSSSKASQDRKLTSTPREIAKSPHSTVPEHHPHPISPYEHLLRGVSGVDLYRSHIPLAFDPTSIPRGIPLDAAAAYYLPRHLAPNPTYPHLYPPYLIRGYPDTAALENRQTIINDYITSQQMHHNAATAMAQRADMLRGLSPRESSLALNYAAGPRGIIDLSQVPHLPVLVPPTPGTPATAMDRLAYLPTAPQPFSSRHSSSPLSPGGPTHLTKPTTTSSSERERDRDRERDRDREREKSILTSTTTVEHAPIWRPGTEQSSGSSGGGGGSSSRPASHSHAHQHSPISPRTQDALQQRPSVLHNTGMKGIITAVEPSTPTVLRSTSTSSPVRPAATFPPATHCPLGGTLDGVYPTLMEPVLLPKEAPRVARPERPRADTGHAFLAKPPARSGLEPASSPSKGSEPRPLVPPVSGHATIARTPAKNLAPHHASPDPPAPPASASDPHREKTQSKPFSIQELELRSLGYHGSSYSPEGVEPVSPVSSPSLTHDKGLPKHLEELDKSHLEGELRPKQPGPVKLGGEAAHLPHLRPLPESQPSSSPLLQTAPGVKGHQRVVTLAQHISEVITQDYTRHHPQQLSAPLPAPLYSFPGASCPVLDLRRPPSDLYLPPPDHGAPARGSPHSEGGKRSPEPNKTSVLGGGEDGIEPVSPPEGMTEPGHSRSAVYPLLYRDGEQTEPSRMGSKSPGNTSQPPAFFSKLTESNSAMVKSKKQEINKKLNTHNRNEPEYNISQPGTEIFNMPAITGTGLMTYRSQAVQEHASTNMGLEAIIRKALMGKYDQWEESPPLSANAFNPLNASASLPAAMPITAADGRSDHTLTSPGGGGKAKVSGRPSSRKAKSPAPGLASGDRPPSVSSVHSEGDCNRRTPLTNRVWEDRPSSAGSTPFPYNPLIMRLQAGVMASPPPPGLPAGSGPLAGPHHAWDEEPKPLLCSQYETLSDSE

[2] = molecular target: T1, Histone deacetylase 8 (Schistosoma mansoni) (UniProt A5H660); experiment: Inhibition of Schistosoma mansoni KDAC8 at 30 uM using (FAM)-labeled peptide as substrate after 60 mins by microfluidic assay
T1 sequence (whole entry): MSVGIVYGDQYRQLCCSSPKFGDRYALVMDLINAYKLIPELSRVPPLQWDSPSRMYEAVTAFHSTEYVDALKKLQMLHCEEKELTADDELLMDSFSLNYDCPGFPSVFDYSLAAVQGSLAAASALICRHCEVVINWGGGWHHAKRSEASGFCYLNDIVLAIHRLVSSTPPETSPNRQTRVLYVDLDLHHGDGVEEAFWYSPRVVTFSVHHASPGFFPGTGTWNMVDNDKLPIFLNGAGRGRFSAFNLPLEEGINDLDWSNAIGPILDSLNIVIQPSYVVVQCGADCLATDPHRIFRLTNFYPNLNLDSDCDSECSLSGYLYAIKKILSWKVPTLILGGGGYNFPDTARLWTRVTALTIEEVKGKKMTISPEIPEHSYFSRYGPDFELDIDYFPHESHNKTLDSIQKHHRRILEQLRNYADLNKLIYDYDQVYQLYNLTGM

[3] = molecular target: KDAC1 (histone deacetylase 1) (Homo sapiens, UniProt Q13547); experiment: Inhibition of full length human C-terminal FLAG/His-tagged KDAC1 expressed in baculovirus expression system at 30 uM using substrate A after 60 mins by microfluidic assay relative to control; conditions: probe substrate A
Chain of KDAC1 (histone deacetylase 1) (Q13547 whole entry): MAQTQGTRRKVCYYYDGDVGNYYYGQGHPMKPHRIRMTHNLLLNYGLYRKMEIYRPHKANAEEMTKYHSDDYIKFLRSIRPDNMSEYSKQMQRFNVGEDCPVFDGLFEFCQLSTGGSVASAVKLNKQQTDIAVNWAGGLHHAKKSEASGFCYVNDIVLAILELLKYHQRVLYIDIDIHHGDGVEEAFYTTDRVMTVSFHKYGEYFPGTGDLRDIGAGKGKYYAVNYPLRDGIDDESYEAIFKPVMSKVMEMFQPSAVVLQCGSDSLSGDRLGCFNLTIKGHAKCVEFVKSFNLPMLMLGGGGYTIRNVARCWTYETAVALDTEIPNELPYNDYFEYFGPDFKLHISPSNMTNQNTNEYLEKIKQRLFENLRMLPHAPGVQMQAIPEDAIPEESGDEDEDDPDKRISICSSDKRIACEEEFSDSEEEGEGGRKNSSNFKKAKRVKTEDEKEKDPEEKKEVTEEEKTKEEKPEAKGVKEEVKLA

[4] = molecular target: T2, Histone deacetylase 8 (Homo sapiens, UniProt Q9BY41); experiment: (§2) Inhibition of full length human C-terminal His-tagged KDAC8 expressed in baculovirus expression system at 30 uM using (FAM)-labeled peptide as substrate after 60 mins by microfluidic assay relative to control; conditions: 1 h, 30 µM
T2 sequence (Q9BY41 whole entry): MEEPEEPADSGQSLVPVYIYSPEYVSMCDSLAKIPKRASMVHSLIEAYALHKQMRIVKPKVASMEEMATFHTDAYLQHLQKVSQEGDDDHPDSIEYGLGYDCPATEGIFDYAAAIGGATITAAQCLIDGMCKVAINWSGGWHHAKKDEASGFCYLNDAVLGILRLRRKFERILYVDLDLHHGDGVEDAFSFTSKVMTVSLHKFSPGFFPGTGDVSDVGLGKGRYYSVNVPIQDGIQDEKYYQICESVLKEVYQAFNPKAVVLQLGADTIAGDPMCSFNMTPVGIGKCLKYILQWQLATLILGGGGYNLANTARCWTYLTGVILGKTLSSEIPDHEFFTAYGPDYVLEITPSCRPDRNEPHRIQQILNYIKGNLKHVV

[5] = molecular target: T3, Protein deacetylase HDAC6 (Homo sapiens, UniProt Q9UBN7); experiment: (§3) Inhibition of human KDAC6 expressed in baculovirus expression system at 30 uM using FITC-Histone 4 acetylated peptide as substrate after 60 mins by microfluidic assay; conditions: 1 h, 30 µM
T3 sequence (Q9UBN7 whole entry): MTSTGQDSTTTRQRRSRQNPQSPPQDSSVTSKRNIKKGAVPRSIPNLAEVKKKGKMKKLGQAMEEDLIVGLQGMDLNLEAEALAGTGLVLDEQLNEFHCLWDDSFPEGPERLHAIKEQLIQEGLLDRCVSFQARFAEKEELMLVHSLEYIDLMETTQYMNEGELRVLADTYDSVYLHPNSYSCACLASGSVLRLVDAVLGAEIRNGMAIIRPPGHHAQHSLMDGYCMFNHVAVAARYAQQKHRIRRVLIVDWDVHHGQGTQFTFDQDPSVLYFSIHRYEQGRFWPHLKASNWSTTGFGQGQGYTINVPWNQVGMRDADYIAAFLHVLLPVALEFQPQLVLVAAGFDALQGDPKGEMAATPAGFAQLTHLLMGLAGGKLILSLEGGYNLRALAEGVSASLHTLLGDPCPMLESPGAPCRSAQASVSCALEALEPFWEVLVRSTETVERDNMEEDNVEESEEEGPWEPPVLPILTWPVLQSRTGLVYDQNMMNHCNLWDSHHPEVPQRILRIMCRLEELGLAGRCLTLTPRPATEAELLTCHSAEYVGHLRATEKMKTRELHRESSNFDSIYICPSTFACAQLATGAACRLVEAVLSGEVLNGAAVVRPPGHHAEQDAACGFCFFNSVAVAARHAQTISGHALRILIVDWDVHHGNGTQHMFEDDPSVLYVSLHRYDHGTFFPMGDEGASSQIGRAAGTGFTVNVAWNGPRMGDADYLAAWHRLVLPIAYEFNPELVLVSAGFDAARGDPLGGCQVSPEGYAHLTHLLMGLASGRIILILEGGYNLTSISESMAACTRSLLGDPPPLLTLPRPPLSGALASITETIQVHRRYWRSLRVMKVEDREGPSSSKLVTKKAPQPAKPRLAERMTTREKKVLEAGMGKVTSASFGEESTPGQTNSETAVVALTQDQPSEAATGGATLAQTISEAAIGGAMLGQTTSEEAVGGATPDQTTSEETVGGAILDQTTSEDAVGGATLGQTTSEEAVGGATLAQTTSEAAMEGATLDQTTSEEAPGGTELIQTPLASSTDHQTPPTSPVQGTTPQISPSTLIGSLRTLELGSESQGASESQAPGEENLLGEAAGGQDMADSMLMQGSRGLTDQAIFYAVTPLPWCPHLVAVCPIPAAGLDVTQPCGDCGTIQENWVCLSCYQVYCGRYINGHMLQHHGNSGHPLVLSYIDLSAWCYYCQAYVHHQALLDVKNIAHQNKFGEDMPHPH

[6] = molecular target: T4, KDAC8 (histone deacetylase 8) (Homo sapiens, UniProt Q9BY41); experiment: as §2; conditions: probe (FAM)-labeled peptide
T4 sequence (Q9BY41 whole entry): T2 sequence (Q9BY41 whole entry)

[7] = molecular target: T5, KDAC6 (protein deacetylase HDAC6) (Homo sapiens, UniProt Q9UBN7); experiment: as §3; conditions: probe FITC-Histone 4 acetylated peptide
T5 sequence (Q9UBN7 whole entry): T3 sequence (Q9UBN7 whole entry)

[8] = molecular target: Histone deacetylase 3/Nuclear receptor corepressor 2 (HDAC3/NCoR2) (Homo sapiens, UniProt O15379+Q9Y618); experiment: as §1; conditions: 1 h, 30 µM
Chain of Histone deacetylase 3/Nuclear receptor corepressor 2 (HDAC3/NCoR2) (O15379 whole entry): as the sequence (O15379 whole entry, the tested form may be a part) above
Chain of Histone deacetylase 3/Nuclear receptor corepressor 2 (HDAC3/NCoR2) (Q9Y618 whole entry): as the sequence (Q9Y618 whole entry, further chain, the tested form may be a part) above

With CCOC(=O)C(Cc1ccc(O)cc1)Nc1nc2ccccc2o1 (stereo not given) the inhibition at 1 h, 30 µM [1] was 7%, the inhibition [2] was “inactive” and the inhibition at 1 h, 30 µM [3] was 1%. The “inhibition (INH)” value [4] was “Not Active” and the “inhibition (INH)” value [5] was “Not Active”.
Molecule CCOC(=O)Cc1cc(=O)[nH]n(-c2ccccc2)c1=O has an inhibition at 1 h, 30 µM [1] of 1%, an inhibition [2] of 1% and an inhibition at 1 h, 30 µM [3] of 2%. It also gave an inhibition at 1 h, 30 µM [6] of 3% and an inhibition at 1 h, 30 µM [7] of 2%.
For CC1=NN(c2ccccc2)C(=O)C1/N=N/c1ccc(S(N)(=O)=O)cc1 (stereo not given), the inhibition at 1 h, 30 µM [1] was 6%, the inhibition [2] was “inactive” and the inhibition at 1 h, 30 µM [3] was 1%. The “inhibition (INH)” value [4] was “Not Active” and the “inhibition (INH)” value [5] was “Not Active”.
CCOC(=O)c1[nH]c(C(=O)O)c(OC(=O)CC)c1C was tested, and the “inhibition (INH)” value [8] was “Not Active”, the inhibition [2] was “inactive” and the inhibition at 1 h, 30 µM [3] was 5%. The “inhibition (INH)” value [4] was “Not Active” and the “inhibition (INH)” value [5] was “Not Active”.
CC1=CC(C)(C)N=C(S)N1c1cccc2cc(S(=O)(=O)O)ccc12 was tested, and the inhibition at 1 h, 30 µM [1] was 1%, the inhibition [2] was 9% and the inhibition at 1 h, 30 µM [3] was 3%. The “inhibition (INH)” value [4] was “Not Active” and the “inhibition (INH)” value [5] was “Not Active”.
For O=C(O)Cc1ccc(/N=N/c2c(O)c(C(=O)O)cc3ccccc23)cc1, the inhibition at 1 h, 30 µM [1] was 1%, the inhibition [2] was “inactive” and the inhibition at 1 h, 30 µM [3] was 2%. It also gave an inhibition at 1 h, 30 µM [6] of 19% and an inhibition at 1 h, 30 µM [7] of 3%.
FC(F)(F)c1cccc(OCC2CN=C(S)O2)c1 (stereo not given) showed an inhibition at 1 h, 30 µM [1] of 6%, an inhibition [2] of 2% and an inhibition at 1 h, 30 µM [3] of 2%. For the same molecule, the inhibition at 1 h, 30 µM [6] was 16% and the inhibition at 1 h, 30 µM [7] was 3%.
